Read-outs that look alike come from different tables or passages of the source.
How the values were obtained:
[1] = test system: prostaglandin biosynthesis; assay: Rat carrageenan pleural inflammation model (CIP); format: in vivo, Sprague-Dawley rats; conditions: 10 milligrams per kilogram body weight, oral, 30 minutes before intrapleural carrageenan; lavage after four hours
Procedure: (§1) To compare the mean responses of the treatment groups, analysis of variance was applied. Percent inhibition values were determined by comparing the individual treatment mean values to the mean of the control group. Linear regression was used to estimate IC50's/ED50's in appropriate assays.
(§2) EIA reagents for prostaglandin determination were purchased from Perseptive Diagnostics, (Cambridge, MA). PGE2 levels in lavage fluids were determined after the samples were dried under nitrogen and reconstituted with assay buffer. PGE2 levels in enzyme assays or cell culture media were measured against standards prepared in the same milieu. The immunoassays were conducted as recommended by the manufacturer. The EIA was conducted in 96 well microtiter plates (Nunc Roskilde, Denmark) and optical density was measured using a microplate reader (Vmax, Molecular Devices Corp., Menlo Park, CA).
Pleural inflammation was induced in male adrenalectomized Sprague-Dawley rats following the method of Vinegar et al., Fed. Proc. 1976, 35, 2447-2456. Animals were orally dosed with experimental compounds, in 0.2% HPMC, 30 minutes prior to the intrapleural injection of 2% lambda carrageenan (Sigma Chemical Co., St. Louis MO). Four hours later the animals were euthanized and the pleural cavities lavaged with ice cold saline. […] Eicosanoids were determined by EIA as described above. […]

[2] = target: T1, Cox-1 (Homo sapiens, UniProt P23219); assay: U937 cell assay, Cox-1 activity by EIA; format: cell-based; set-up: host or cells: U937 cells; conditions: U937 cells
Procedure: as §1, §2
(§3) Human amnionic WISH cells were grown to 80% confluence in 48 well plates. Following removal of the growth medium and two washings with Gey's Balanced Salt Solution, 5 ng IL-1 β/ml (UBI, Lake Placid, NY) was added to the cells with or without test compound in DMSO (0.01% v/v) in Neuman-Tytell Serumless Medium (GIBCO, Grand Island, NY). Following an 18 hour incubation to allow for the maximal induction of PGHS-2, the conditioned medium was removed and assayed for PGE2 activity by EIA analysis as described above.
(§4) U937 (ATCC, Rockville, MD) cells were grown in a similar fashion to the WISH cells. After incubation, the conditioned medium was removed and assayed for Cox-1 activity by EIA analysis as described above. U937 values indicate percent inhibition at the particular micromolar dose level while parenthetical values indicate IC50 values. Wish cell values indicate Cox-2 pecent inhibition at the particular micromolar dose level.

[3] = target: T1, Cox-1; assay: Recombinant human PGHS-1 (Cox-1) enzyme assay, PGE2 by EIA; format: biochemical; set-up: made in house; host or cells: baculovirus/Sf9 insect cells (microsomes); conditions: microsomes, 60 min preincubation, 10 µM arachidonic acid, read-out: RHUCX1 Cox-1 percent inhibition
Procedure: as §1, §2
(§5) Inhibition of prostaglandin biosynthesis in vitro was evaluated using recombinant human Cox-1 (r-hu Cox1) and Cox-2 (r-hu Cox2) enzyme assays. […] The reaction was allowed to run for 2.5 minutes at room temperature prior to quenching with HCl and neutralization with NaOH. PGE2 production in the presence and absence of the drug was determined by EIA analysis. The EIA was conducted in 96 well microtiter plates (Nunc Roskilde, Denmark) and optical density was measured using a microplate reader (Vmax, Molecular Devices Corp., Menlo Park, CA). EIA reagents for prostaglandin determination were purchased from Perseptive Diagnostics (Cambridge, MA). PGE2 levels were measured against standards prepared in the same milieu. The immunoassays were conducted as recommended by the manufacturer. The compounds are designated by the Example Number. […] Values for Cox-2 inhibition that are parenthetical indicate IC50 values.

[4] = target: T2, Cox-2 (Homo sapiens, UniProt P35354); assay: Recombinant human PGHS-2 (Cox-2) enzyme assay, PGE2 by EIA; format: biochemical; set-up: made in house; host or cells: baculovirus/Sf9 insect cells (microsomes); conditions: microsomes, 60 min preincubation, 10 µM arachidonic acid; for IC50: read-out: RHUCX2 Cox-2 IC50 (parenthetical values); for inhibition at 0.1 µM: at 100 nM; for inhibition at 0.1 µM / inhibition at 1 µM: read-out: RHUCX2 Cox-2 percent inhibition; for inhibition at 1 µM: at 1000 nM
T2 sequence (P35354 18-604): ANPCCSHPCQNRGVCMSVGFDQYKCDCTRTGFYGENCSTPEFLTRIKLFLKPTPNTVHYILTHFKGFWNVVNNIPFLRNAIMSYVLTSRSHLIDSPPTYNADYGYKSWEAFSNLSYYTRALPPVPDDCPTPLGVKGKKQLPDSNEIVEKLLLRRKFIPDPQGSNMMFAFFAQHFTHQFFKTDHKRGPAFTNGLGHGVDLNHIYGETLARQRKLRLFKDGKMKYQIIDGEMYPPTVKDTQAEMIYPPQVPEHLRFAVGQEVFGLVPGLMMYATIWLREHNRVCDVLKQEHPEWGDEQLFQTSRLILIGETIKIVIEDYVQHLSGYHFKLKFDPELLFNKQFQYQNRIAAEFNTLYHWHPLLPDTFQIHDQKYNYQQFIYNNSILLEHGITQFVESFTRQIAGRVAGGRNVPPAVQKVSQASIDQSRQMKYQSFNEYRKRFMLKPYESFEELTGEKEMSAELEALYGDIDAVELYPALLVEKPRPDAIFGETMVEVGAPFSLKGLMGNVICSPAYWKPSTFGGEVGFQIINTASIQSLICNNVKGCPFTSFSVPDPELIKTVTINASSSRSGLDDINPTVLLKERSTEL
Procedure: as §1, §2, §5

[5] = target: T2, Cox-2; assay: IL-1β induced PGE2 production in WISH cells; format: cell-based; set-up: endogenous in cells; host or cells: human amnionic WISH cells induced with IL-1β
Procedure: as §1, §2, §3
as §4, with “Wish cell values indicate Cox-2 pecent inhibition at the particular micromolar dose level.” left out

[6] = U-937, read-out: U937 percent inhibition

T1 sequence (P23219 24-599): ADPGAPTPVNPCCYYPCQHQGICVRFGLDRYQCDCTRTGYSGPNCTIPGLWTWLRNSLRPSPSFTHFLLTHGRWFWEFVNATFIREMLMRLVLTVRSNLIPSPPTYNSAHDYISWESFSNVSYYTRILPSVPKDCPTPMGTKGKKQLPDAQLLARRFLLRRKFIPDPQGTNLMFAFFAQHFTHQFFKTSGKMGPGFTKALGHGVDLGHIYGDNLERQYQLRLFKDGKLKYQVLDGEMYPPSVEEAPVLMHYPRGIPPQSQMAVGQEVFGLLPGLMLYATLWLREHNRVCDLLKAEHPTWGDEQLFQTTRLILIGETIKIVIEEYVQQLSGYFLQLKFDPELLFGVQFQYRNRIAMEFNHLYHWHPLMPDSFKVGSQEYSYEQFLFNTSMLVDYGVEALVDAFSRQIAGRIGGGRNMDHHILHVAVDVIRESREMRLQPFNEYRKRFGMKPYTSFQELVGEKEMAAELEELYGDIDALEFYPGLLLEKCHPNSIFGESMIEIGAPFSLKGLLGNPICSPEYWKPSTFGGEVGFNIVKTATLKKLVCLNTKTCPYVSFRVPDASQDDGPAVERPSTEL

Row | inhibition at 100 µM [3] [%] | IC50 [4] [nM] | inhibition at 10 µM [2, 6] [%] | inhibition at 0.1 µM [4] [%] | Compound | further results
1 | 4 | 20 |  |  | CS(=O)(=O)c1ccc(-c2cc(=O)n(Cc3ccccc3)nc2-c2ccc(F)cc2)cc1 [Example 7, 2-Benzyl-5-(4-methylsulfonylphenyl)-6-(4-fluorophenyl)-3(2H)-pyridazinone] | CIP Inh @10mpk [1]: 22%; IC50 ([2]; read-out: U937 IC50 (parenthetical values)): 870 nM
2 | 2 |  | 62 | 65 | CS(=O)(=O)c1ccc(-c2cc(=O)n(Cc3ccc(F)cc3)nc2-c2ccc(F)cc2)cc1 [Example 10, 2-(4-Fluorobenzyl)-5-(4-methylsulfonylphenyl)-6-(4-fluorophenyl)-3(2H)-pyridazinone] | 
3 | 19 |  |  | 51 | CCCCn1nc(-c2ccc(F)cc2)c(-c2ccc(S(C)(=O)=O)cc2)cc1=O [Example 11, 2-(n-Butyl)-5-(4-methylsulfonylphenyl)-6-(4-fluorophenyl)-3(2H)-pyridazinone] | 
4 | 8 | 740 |  |  | CC(c1ccc(F)cc1)n1nc(-c2ccc(F)cc2)c(-c2ccc(S(C)(=O)=O)cc2)cc1=O (stereo not drawn) [Example 12, 2-(4-Fluoro-α-methylbenzyl)-5-(4-methylsulfonylphenyl)-6-(4-fluorophenyl)-3(2H)-pyridazinone] | 
5 | 23 |  |  | 66 | CCCCCn1nc(-c2ccc(F)cc2)c(-c2ccc(S(C)(=O)=O)cc2)cc1=O [Example 14, 2-(n-Pentyl)-5-(4-methylsulfonylphenyl)-6-(4-fluorophenyl)-3(2H)-pyridazinone] | inhibition at 1 µM ([2]; U-937, at 1 µM, read-out: U937 percent inhibition): 42%; Wish Cox-2 percent inhibition ([5]; at 0.00001 (head:)): 34 @ 0.00001%
6 | 52 | 5 |  |  | CS(=O)(=O)c1ccc(-c2cc(=O)n(CC3CCCCC3)nc2-c2ccc(F)cc2)cc1 [Example 15, 2-Cyclohexylmethyl-5-(4-methylsulfonylphenyl)-6-(4-fluorophenyl)-3(2H)-pyridazinone] | inhibition at 0.01 µM ([2]; U-937, at 0.01 µM, read-out: U937 percent inhibition): 33%; Wish Cox-2 percent inhibition ([5]; at 0.001 (head:)): 43 @ 0.001%
7 | 0 | 850 | 41 |  | C#CCn1nc(-c2ccc(F)cc2)c(-c2ccc(S(C)(=O)=O)cc2)cc1=O [Example 17, 2-Propargyl-5-(4-methylsulfonylphenyl)-6-(4-fluorophenyl)-3(2H)-pyridazinone] | Wish Cox-2 percent inhibition [5]: 54 @ 1%
8 | 16 |  |  | 49 | CS(=O)(=O)c1ccc(-c2cc(=O)n(C3CCCCC3)nc2-c2ccc(F)cc2)cc1 [Example 18, 2-Cyclohexyl-5-(4-methylsulfonylphenyl)-6-(4-fluorophenyl)-3(2H)-pyridazinone] | 
9 | 3 |  |  |  | CC#CCn1nc(-c2ccc(F)cc2)c(-c2ccc(S(C)(=O)=O)cc2)cc1=O [Example 19, 2-(2-Butyn-1-yl)-5-(4-methylsulfonylphenyl)-6-(4-fluorophenyl)-3(2H)-pyridazinone] | inhibition at 1 µM [4]: 66%
10 |  |  | 60 |  | CS(=O)(=O)c1ccc(-c2cc(=O)n(CC3CCC3)nc2-c2ccc(F)cc2)cc1 [Example 20, 2-(Cyclobutylmethyl)-5-(4-methylsulfonylphenyl)-6-(4-fluorophenyl)-3(2H)-pyridazinone] | 
11 | 62 |  | 80 | 92 | CC(C)=CCn1nc(-c2ccc(F)cc2)c(-c2ccc(S(C)(=O)=O)cc2)cc1=O [Example 21, 2-(3-Methylbuten-2-yl)-5-(4-methylsulfonylphenyl)-6-(4-fluorophenyl)-3(2H)-pyridazinone] | 
12 | 0 |  |  |  | CS(=O)(=O)c1ccc(-c2cc(=O)n(CC(F)(F)F)nc2-c2ccc(F)cc2)cc1 [Example 22, 2-(2,2,2-Trifluoroethyl)-5-(4-methylsulfonylphenyl)-6-(4-fluorophenyl)-3(2H)-pyridazinone] | inhibition at 1 µM [4]: 46%
13 | 24 | 250 | 30 |  | CS(=O)(=O)c1ccc(-c2cc(=O)n(CC3CC3)nc2-c2ccc(F)cc2)cc1 [Example 23, 2-(Cyclopropylmethyl)-5-(4-methylsulfonylphenyl)-6-(4-fluorophenyl)-3(2H)-pyridazinone] | CIP Inh @10mpk [1]: 41%; Wish Cox-2 percent inhibition [5]: 62 @ 1%
14 | 23 |  |  | 87 | CS(=O)(=O)c1ccc(-c2cc(=O)n(CC3CCCC3)nc2-c2ccc(F)cc2)cc1 [Example 24, 2-Cyclopentylmethyl-5-(4-methylsulfonylphenyl)-6-(4-fluorophenyl)-3(2H)-pyridazinone] | 
15 | 7 |  |  | 42 | CS(=O)(=O)c1ccc(-c2cc(=O)n(C3CCCC3)nc2-c2ccc(F)cc2)cc1 [Example 25, 2-Cyclopentyl-5-(4-methylsulfonylphenyl)-6-(4-fluorophenyl)-3(2H)-pyridazinone] | 

— patent EP1005460B1, “PROSTAGLANDIN ENDOPEROXIDE H SYNTHASE BIOSYNTHESIS INHIBITORS” (ABBOTT LABORATORIES, priority 1997, dated 1999)
